# Test results taken from paper PMC9057582, “HIF inhibitor 32-134D eradicates murine hepatocellular carcinoma in combination with anti-PD1 therapy” (The Journal of Clinical Investigation, 2022).
# Experiments:
# [1] = test system: Hepa1-6 tumor immune microenvironment; assay: Flow cytometry of immune cell populations in Hepa1-6 tumors; assay type: in vivo, C57L mice; conditions: 40 mg/kg daily ip, 8 days
# Method: To analyze the mechanism by which 32-134D increased the response to anti-PD1 therapy, Hepa1-6 tumor–bearing mice were treated with 32-134D or vehicle, and immune cell populations in well-established 200-mm^3 tumors were analyzed by flow cytometry (Supplemental Figure 8). […] The pivotal role of CD8^+ T cells and NK cells in antitumor immunity is underscored by the fact that expression of CD8A and CD8B mRNA as well as KLRK1 and KLRB1 mRNA (encoding the human homologs of CD314 and NK1.1, respectively) in HCC is associated with patient survival (P < 0.05; Supplemental Table 2).
# Figure 5 Effect of 32-134D on the tumor immune microenvironment. (A–H) C57L mice were injected with Hepa1-6 HCC cells subcutaneously and when tumors reached a volume of 200 mm^3, the mice were treated with vehicle or 32-134D (40 mg/kg) by daily intraperitoneal injection for 8 days. Single-cell suspensions prepared from each tumor were analyzed by flow cytometry using fluorescent antibodies against the indicated cell surface proteins. The percentage of cells positive for the indicated markers is shown (mean ± SEM, n = 6). *P < 0.05 (Mann-Whitney test). M-MDSCs and G-MDSCs, monocytic and granulocytic myeloid-derived suppressor cells; TAMs, tumor-associated macrophages.
# Hepa1-6 tumors were digested with collagenase (1 mg/mL) at 37°C for 30 minutes and the resulting single-cell suspension was passed through a 70-μm cell strainer and washed twice with cold PBS. Cells were resuspended in FC buffer for subsequent flow cytometry analysis. Cells were stained with at least 2 antibodies (see Supplemental Table 6) to capture different immune cell populations. G-MDSCs: Alexa Fluor 405–conjugated anti-CD11b and FITC-conjugated anti-Ly6G; M-MDSCs: Alexa Fluor 405–conjugated anti-CD11b and FITC-conjugated anti-Ly6C; TAMs: Alexa Fluor 405–conjugated anti-CD11b and allophycocyanin-conjugated (APC-conjugated) anti-F4/80; dendritic cells: Alexa Fluor 405–conjugated anti-CD11b, FITC-conjugated anti-CD11c, and APC-conjugated anti-F4/80; cytotoxic NK cells: FITC-conjugated anti-CD3, APC-conjugated anti-NK1.1, and Alexa Fluor 405–conjugated anti-CD314; effector T cells: phycoerythrin-conjugated (PE-conjugated) anti-CD8A and Alexa Fluor 405–conjugated anti–IFN-γ; activated T cells: PE-conjugated anti-CD8A, FITC-conjugated anti-CD69, and APC-conjugated anti-CD44; regulatory T cells: APC-conjugated anti-CD4, FITC-conjugated anti-CD25, and PE-conjugated anti-FOXP3. Live cells were gated using side-scatter and forward-scatter plots, and data were acquired using FACSDiva software (Becton Dickinson). Cell populations were gated using unstained control and single stained cell samples. Data analysis was performed using FlowJo software.
# Supplemental Figure 8. Effect of 32-134D on Hepa1-6 tumor immune cell microenvironment. […]
# [2] = Mouse pharmacokinetics (plasma, LC-MS/MS); assay type: in vivo, C57BL/6J mice; conditions: male, C57BL/6J, ip, single intraperitoneal injection of 40 mg/kg
# Method: We employed liquid chromatography and tandem mass spectrometry (LC-MS/MS) to quantify the plasma concentration of 32-134D over 24 hours following a single intraperitoneal injection of 40 mg/kg (Figure 9). The maximum plasma concentration (Cmax) of 20 μM occurred at 4 hours with a biexponential decline. […] Further studies are required to determine whether steady-state levels are achieved with daily administration.
# Figure 9 Concentration-time profiles of 32-134D in mice (n = 3 per time point) treated with a single dose of 32-134D. Plasma was obtained over 24 hours, with 32-134D concentrations determined by LC-MS/MS. […] Data points and error bars represent mean and SD of 3 replicates, respectively.
# Male C57BL/6J mice were administered 32-134D at 40 mg/kg as a single intraperitoneal injection. Mice (n = 3 per time point) were euthanized at 0.5, 1, 2, 4, 8, 16, and 24 hours after injection. Compound 32-134D was quantified in plasma by LC-MS/MS (see Supplemental Methods). Pharmacokinetic parameters were calculated from mean concentration-time data using noncompartmental methods in Phoenix WinNonlin version 8.3 (Certara). The Cmax and time to Cmax (tmax) were the observed values. The AUClast was calculated using the log-linear trapezoidal method. AUC was extrapolated to infinity (AUCINF) by dividing the last quantifiable concentration by the terminal disposition rate constant (λz). The λz was determined from at least 3 points on the slope of the terminal phase of the concentration-time profile. The t1/2 was determined by dividing 0.693 by λz. Cl/F was calculated by dividing the dose administered by AUCINF. V/F was calculated by dividing Cl/F by λz. If the percentage AUC extrapolated was greater than 20% or the r^2 of λz was less than 0.85, the AUCINF, Cl/F, t1/2, and V/F were not reported.
compound,measurement,setting,value
Brc1ccc2c(-c3csc(-c4c[nH]c5c(Br)cccc45)n3)c[nH]c2c1 [Compound 32-134D],increase in the ratio of effector T cells to TAMs,[1],3 fold
same,"percentage of regulatory T cells, G-MDSCs, and dendritic cells in tumors",[1],not significantly affected
same,"percentage of CD8+IFN-γ+ effector T cells, CD8+CD44+CD69+ activated T cells, and NK1.1+CD3–CD314+ activated NK cells in tumors",[1]; P < 0.05,significantly increased
same,percentage of intratumoral CD11b+F4/80+ TAMs and CD11b+Ly6C+ M-MDSCs,[1]; P < 0.05,decreased percentage
same,CL/F,[2]; read-out: apparent clearance (Cl/F),0.87 L/h/kg
same,Vd/F,[2]; read-out: apparent volume of distribution (V/F),6.1 L/kg
same,AUC(0-inf),[2]; read-out: area under the curve extrapolated to infinity (AUCINF),96.7 µM·h
same,Cmax,[2]; read-out: maximum plasma concentration (Cmax),20 µM
same,half-life,[2]; read-out: terminal half-life (t1/2) (converted),4.1 h
